What was measured:
[1] = biological target: 17β-HSD1 (Homo sapiens (Human), UniProt P14061); test: 17β-HSD1 test assay (recombinant protein from Sf9 insect cells, 3H-estrone/NADPH); format: biochemical; details: for inhibition at 1 µM: read-out: HSD 1 μM (% inhibition of HSD1), inhibitor 1 μM; for inhibition at 0.1 µM: read-out: HSD1 100 nM (% inhibition), inhibitor 100 nM
Procedure: Recombinant protein obtained from Sf9 insect cells (0.1 μg/ml) is incubated with 20 mM KH2PO4, pH 7.4, 30 nM ^3H-estrone and 1 mM NADPH for 30 min at RT in the presence of the potential inhibitor in a concentration of 1 μM or 100 nM. The stock solutions of the compounds are prepared in DMSO (dimethylsulfoxide) so that the final concentration of DMSO in the sample is 1%. After the prescribed incubation time, the reaction is quenched by adding trichloroacetic acid (10% final concentration). The samples are centrifuged in microtitration plates at 400 rpm for 10 min, and the supernatants are charged on a reversed-phase HPLC equipped with a Waters Symmetrie C18 column and Waters Sentry Guard column. The isocratic HPLC run is performed at RT with a flow rate of 1 ml/min and acetonitrile/water 48:52 as the eluent. The radioactivity was measured by means of a Packard Flow Scintillation Analyzer. […]

[2] = biological target: 17β-HSD2 (Homo sapiens (Human), UniProt P37059); test: 17β-HSD2 test assay (recombinant protein from Sf9 insect cells, 3H-estradiol/NAD+); format: biochemical; details: for inhibition at 0.1 µM: read-out: HSD2 100 nM (% inhibition), inhibitor 100 nM; for inhibition at 1 µM: read-out: HSD2 1 μM (% inhibition), inhibitor 1 μM
Procedure: Recombinant protein obtained from Sf9 insect cells (0.1 μg/ml) is incubated with 20 mM KH2PO4, pH 7.4, 30 nM ^3H-estradiol and 1 mM NAD+ for 30 min at RT in the presence of the potential inhibitor in a concentration of 1 μM or 100 nM. The stock solutions of the compounds are prepared in DMSO so that the final concentration of DMSO in the sample is 1%. After the prescribed incubation time, the reaction is quenched by adding trichloroacetic acid (10% final concentration). The samples are centrifuged in microtitration plates at 400 rpm for 10 min, and the supernatants are charged on a reversed-phase HPLC equipped with a Waters Symmetrie C18 column and
Waters Sentry Guard column. The isocratic HPLC run is performed at RT with a flow rate of 1 ml/min and acetonitrile/water 48:52 as the eluent. The radioactivity was measured by means of a Packard Flow Scintillation Analyzer. The percent inhibition was calculated by means of the formulas stated above.

17β-HSD1, sequence (P14061 whole entry): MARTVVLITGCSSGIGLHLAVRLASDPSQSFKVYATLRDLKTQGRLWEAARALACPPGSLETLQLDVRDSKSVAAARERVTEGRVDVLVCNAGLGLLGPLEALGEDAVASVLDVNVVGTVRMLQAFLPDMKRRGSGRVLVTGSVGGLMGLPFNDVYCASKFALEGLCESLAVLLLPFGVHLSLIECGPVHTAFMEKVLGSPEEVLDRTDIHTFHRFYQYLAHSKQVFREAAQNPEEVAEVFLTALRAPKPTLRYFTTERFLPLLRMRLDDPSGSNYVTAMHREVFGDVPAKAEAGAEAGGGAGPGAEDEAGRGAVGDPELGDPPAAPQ
17β-HSD2, sequence (P37059 whole entry): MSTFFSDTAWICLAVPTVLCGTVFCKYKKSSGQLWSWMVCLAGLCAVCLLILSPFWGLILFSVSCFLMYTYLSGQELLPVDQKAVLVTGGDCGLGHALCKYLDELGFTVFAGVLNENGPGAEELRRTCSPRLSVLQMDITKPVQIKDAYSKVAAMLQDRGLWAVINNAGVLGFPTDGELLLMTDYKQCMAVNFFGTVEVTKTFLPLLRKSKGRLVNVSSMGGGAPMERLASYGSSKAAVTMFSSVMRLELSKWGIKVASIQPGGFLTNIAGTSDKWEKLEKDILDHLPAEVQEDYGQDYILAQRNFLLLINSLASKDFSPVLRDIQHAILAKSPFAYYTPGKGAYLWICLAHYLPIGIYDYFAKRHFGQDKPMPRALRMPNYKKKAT

SMILES | inhibition at 1 µM [1] [%] | inhibition at 0.1 µM [1] [%] | inhibition at 0.1 µM [2] [%] | inhibition at 1 µM [2] [%]
Cc1nnc(NC(=O)c2c(O)ccc3cc(-c4cccc(O)c4)ccc23)s1 [Compound 48, 2-Hydroxy-6-(3-hydroxyphenyl)-N-(5-methyl-1,3,4-thiadiazol-2-yl)-1-naphthamide] | 68 | – | – | 24
Oc1cccc(-c2ccc3c(-c4ccc(N5CCOCC5)cc4)c(O)ccc3c2)c1 [Compound 65, 6-(3-Hydroxyphenyl)-1-(4-morpholinophenyl)naphthalene-2-ol] | 64.9 | 31.9 | 12.4 | 31.9
CC(=O)Nc1cccc(-c2c(O)ccc3cc(-c4cccc(O)c4)ccc23)c1 [Compound 66, N-(3-(2-Hydroxy-6-(3-hydroxyphenyl)naphthalene-1-yl)phenyl)acetamide] | 81.5 | 35.1 | 24.1 | 63.6
O=C(/C=C/c1c(O)ccc2cc(-c3cccc(O)c3)ccc12)Nc1ccccc1 [Compound 40, (E)-3-(2-Hydroxy-6-(3-hydroxyphenyl)naphthalene-1-yl)-N-phenylacrylamide] | 60.4 | < 10 | 28.1 | 76.9
O=C(O)CCC(=O)Nc1ccc(-c2c(O)ccc3cc(-c4cccc(O)c4)ccc23)cc1 [Compound 67, 4-(4-(2-Hydroxy-6-(3-hydroxyphenyl)naphthalene-1-yl)phenylamino)-4-oxobutanoic acid] | 62.3 | < 10 | 24.2 | 68
O=[N+]([O-])c1cc(S(=O)(=O)Nc2cccc(-c3c(O)ccc4cc(-c5cccc(O)c5)ccc34)c2)ccc1Cl [Compound 77, 4-chloro-N-{3-[2-hydroxy-6-(3-hydroxyphenyl)-1-naphthyl]phenyl}-3-nitrobenzenesulfonamide] | 79.9 | 73.2 | – | –
CSc1nccc(-c2ccc(S(=O)(=O)Nc3cccc(-c4c(O)ccc5cc(-c6cccc(O)c6)ccc45)c3)s2)n1 [Compound 80, N-{3-[2-hydroxy-6-(3-hydroxyphenyl)-1-naphthyl]phenyl}-5-[2-(methylsulfanyl)pyrimidin-4-yl]thiophene-2-sulfonamide] | 79.4 | 64.7 | – | –
Cc1noc(NC(=O)c2c(O)ccc3cc(-c4cccc(O)c4)ccc23)c1C [Compound 47, N-(3,4-Dimethylisoxazol-5-yl)-2-hydroxy-6-(3-hydroxyphenyl)-1-naphthamide] | 70 | 43 | – | –
O=S(=O)(Nc1cccc(-c2c(O)ccc3cc(-c4cccc(O)c4)ccc23)c1)c1ccc(Cl)s1 [Compound 74, 5-chloro-N-{3-[2-hydroxy-6-(3-hydroxyphenyl)-1-naphthyl]-phenyl}thiophene-2-sulfonamide] | 78 | 46.4 | – | –
CC(=O)Nc1ccc(S(=O)(=O)Nc2cccc(-c3c(O)ccc4cc(-c5cccc(O)c5)ccc34)c2)cc1 [Compound 79, N-(4-{3-[2-hydroxy-6-(3-hydroxyphenyl)-1-naphthyl]phenylsulfamoyl}phenyl)acetamide] | 80.2 | 73.8 | – | –
O=C(Nc1ncccn1)c1c(O)ccc2cc(-c3cccc(O)c3)ccc12 [Compound 50, 2-Hydroxy-6-(3-hydroxyphenyl)-N-(pyrimidin-2-yl)-1-naphthamide] | 40 | < 10 | – | –
O=S(=O)(Nc1cccc(-c2c(O)ccc3cc(-c4cccc(O)c4)ccc23)c1)c1cccs1 [Compound 87, N-{3-[2-hydroxy-6-(3-hydroxyphenyl)-1-naphthyl]phenyl}thiophene-2-sulfonamide] | 80.6 | 71.7 | – | –
O=S(=O)(Nc1cccc(-c2c(O)ccc3cc(-c4cccc(O)c4)ccc23)c1)c1ccc2ncsc2c1 [Compound 86, N-{3-[2-hydroxy-6-(3-hydroxyphenyl)-1-naphthyl]-phenyl}-1,3-benzothiazole-6-sulfonamide] | 80.9 | 71.6 | – | –
O=C(Nc1cccc(O)c1)c1c(O)ccc2cc(-c3cccc(O)c3)ccc12 [Compound 43, 2-Hydroxy-N,6-bis(3-hydroxyphenyl)-1-naphthamide] | 69.9 | 20.5 | < 10 | < 10
COC(=O)c1csc(S(=O)(=O)Nc2cccc(-c3c(O)ccc4cc(-c5cccc(O)c5)ccc34)c2)c1OC [Compound 78, methyl 5-{3-[2-hydroxy-6-(3-hydroxyphenyl)-1-naphthyl]phenylsulfamoyl}-4-methoxythiophene-3-carboxylate] | 79.2 | 63.7 | – | –

The next lines start with the values.

inhibition at 1 µM [1] [%] | inhibition at 0.1 µM [1] [%] | inhibition at 0.1 µM [2] [%] | inhibition at 1 µM [2] [%] | SMILES
22.1 | < 10 | 15.5 | 51.7 | Oc1cccc(-c2ccc3c(-c4cncnc4)c(O)ccc3c2)c1 [Compound 61, 6-(3-Hydroxyphenyl)-1-(pyrimidin-5-yl)naphthalene-2-ol]
80 | < 10 | < 10 | 35.8 | CNC(=O)CCc1c(O)ccc2cc(-c3cccc(O)c3)ccc12 [Compound 55, 3-(2-Hydroxy-6-(3-hydroxyphenyl)naphthalene-1-yl)-N-methylpropanamide]
76.3 | 21.8 | < 10 | 21.6 | CNC(=O)c1c(O)ccc2cc(-c3cccc(O)c3)ccc12 [Compound 41, 2-Hydroxy-6-(3-hydroxyphenyl)-N-methyl-1-naphthamide]
< 10 | < 10 | – | – | O=C(Nc1ccccc1)c1cc(O)cc(-c2ccc3cc(O)ccc3c2)c1 [Compound 30, 3-Hydroxy-5-(6-hydroxynaphthalene-2-yl)-N-phenylbenzamide]
< 10 | < 10 | – | – | Oc1cccc(-c2cnc3ccccc3c2)c1 [Compound 13, 3-(Quinolin-3-yl)phenol]
80 | 44.7 | < 10 | 34.2 | O=C(O)c1cccc(-c2c(O)ccc3cc(-c4cccc(O)c4)ccc23)c1 [Compound 63, 3-(2-Hydroxy-6-(3-hydroxyphenyl)naphthalene-1-yl)benzoic acid]
75.8 | 36.3 | – | – | O=C(O)c1cccc(-c2ccc3cc(O)ccc3c2)c1 [Compound 7, 3-(6-hydroxy-2-naphthyl)benzoic acid]
< 10 | < 10 | – | – | Oc1ccc(-c2cnc3cc(O)ccc3c2)cc1 [Compound 15, 3-(4-Hydroxyphenyl)quinolin-7-ol]
56.9 | 24 | – | – | Oc1cccc(-c2ccc3cc(O)ccc3n2)c1 [Compound 12, 2-(3-Hydroxyphenyl)quinolin-6-ol]
33 | – | – | – | O=S(=O)(c1ccccc1)c1c(O)ccc2cc(-c3cccc(O)c3)ccc12 [Compound 91, 6-(3-Hydroxyphenyl)-1-(phenylsulfonyl)-2-naphthol]
19.6 | < 10 | – | – | O=C(/C=C/c1cc(O)cc(-c2ccc3cc(O)ccc3c2)c1)Nc1ccccc1 [Compound 32, (E)-3-[3-Hydroxy-5-(6-hydroxynaphthalene-2-yl)phenyl]-N-phenylacrylamide]
< 10 | < 10 | – | – | Oc1ccc2cc(-c3ccccc3)ccc2c1 [Compound 2, 6-Phenylnaphthalene-2-ol]
< 10 | < 10 | – | – | Oc1ccc2cc(-c3ccccc3O)ccc2c1 [Compound 18, 6-(2-Hydroxyphenyl)-2-naphthol]
13.6 | < 10 | – | – | O=C(CCc1cc(O)cc(-c2ccc3cc(O)ccc3c2)c1)Nc1ccccc1 [Compound 34, 3-[3-Hydroxy-5-(6-hydroxynaphthalene-2-yl)phenyl]-N-phenylpropionamide]
< 10 | < 10 | – | – | COc1ccc(-c2ccc3c(O)cccc3c2)cc1 [Compound 25, 6-(4-Methoxyphenyl)-1-naphthol]
< 10 | < 10 | – | – | CNC(=O)c1cc(O)cc(-c2ccc3cc(O)ccc3c2)c1 [Compound 29, 3-Hydroxy-5-(6-hydroxynaphthalen-2-yl)-N-methylbenzamide]
< 10 | < 10 | – | – | Oc1ccc(-c2cnc3ccccc3c2)cc1 [Compound 14, 4-(Quinolin-3-yl)phenol]
< 10 | < 10 | – | – | Oc1cccc(-c2ccc3c(O)cccc3c2)c1 [Compound 24, 6-(3-Hydroxyphenyl)-1-naphthol]

Reference: patent US8546392B2, “17Beta-hydroxysteroid dehydrogenase type 1 inhibitors for the treatment of hormone-related diseases” (Universitaet des Saarlandes, priority 2008, dated 2013)
